# Experiment: xn = mol fraction of the nth substance listed
# Conditions: 100 kPa
structure (smiles),measurement,setting,value
CC(=O)[O-].CCOCCn1cc[n+](C)c1 + O,electrical conductivity,"288.15 K, x1 = 0.8294",0.352 S/m
same,viscosity,"288.15 K, x1 = 0.8294",41.8 mPa·s
same,electrical conductivity,"288.15 K, x1 = 0.852",0.313 S/m
same,viscosity,"288.15 K, x1 = 0.852",42.73 mPa·s
same,electrical conductivity,"288.15 K, x1 = 0.8822",0.271 S/m
same,viscosity,"288.15 K, x1 = 0.8822",43.97 mPa·s
same,electrical conductivity,"288.15 K, x1 = 0.9125",0.232 S/m
same,viscosity,"288.15 K, x1 = 0.9125",45.18 mPa·s
same,electrical conductivity,"288.15 K, x1 = 0.9447",0.195 S/m
same,viscosity,"288.15 K, x1 = 0.9447",46.51 mPa·s
same,electrical conductivity,"288.15 K, x1 = 1",0.13 S/m
same,viscosity,"288.15 K, x1 = 1",48.34 mPa·s
same,electrical conductivity,"293.15 K, x1 = 0.8294",0.415 S/m
same,viscosity,"293.15 K, x1 = 0.8294",33.23 mPa·s
same,electrical conductivity,"293.15 K, x1 = 0.852",0.377 S/m
same,viscosity,"293.15 K, x1 = 0.852",33.91 mPa·s
same,electrical conductivity,"293.15 K, x1 = 0.8822",0.329 S/m
same,viscosity,"293.15 K, x1 = 0.8822",34.81 mPa·s
same,electrical conductivity,"293.15 K, x1 = 1",0.18 S/m
same,viscosity,"293.15 K, x1 = 1",38.07 mPa·s
same,electrical conductivity,"298.15 K, x1 = 0.8294",0.463 S/m
same,viscosity,"298.15 K, x1 = 0.8294",26.38 mPa·s
same,electrical conductivity,"298.15 K, x1 = 0.852",0.427 S/m
same,viscosity,"298.15 K, x1 = 0.852",26.91 mPa·s
same,electrical conductivity,"298.15 K, x1 = 0.8822",0.384 S/m
same,viscosity,"298.15 K, x1 = 0.8822",27.59 mPa·s
same,electrical conductivity,"298.15 K, x1 = 0.9125",0.347 S/m
same,viscosity,"298.15 K, x1 = 0.9125",28.28 mPa·s
same,electrical conductivity,"298.15 K, x1 = 1",0.247 S/m
same,viscosity,"298.15 K, x1 = 1",30.01 mPa·s
same,electrical conductivity,"303.15 K, x1 = 0.8294",0.551 S/m
same,viscosity,"303.15 K, x1 = 0.8294",20.99 mPa·s
same,electrical conductivity,"303.15 K, x1 = 0.852",0.513 S/m
same,viscosity,"303.15 K, x1 = 0.852",21.43 mPa·s
same,electrical conductivity,"303.15 K, x1 = 0.8822",0.471 S/m
same,viscosity,"303.15 K, x1 = 0.8822",22 mPa·s
same,electrical conductivity,"303.15 K, x1 = 0.9125",0.431 S/m
same,viscosity,"303.15 K, x1 = 0.9125",22.55 mPa·s
same,electrical conductivity,"303.15 K, x1 = 1",0.329 S/m
same,viscosity,"303.15 K, x1 = 1",23.97 mPa·s
same,electrical conductivity,"308.15 K, x1 = 0.8294",0.674 S/m
same,viscosity,"308.15 K, x1 = 0.8294",16.9 mPa·s
same,electrical conductivity,"308.15 K, x1 = 0.852",0.633 S/m
same,viscosity,"308.15 K, x1 = 0.852",17.25 mPa·s
same,electrical conductivity,"308.15 K, x1 = 0.9125",0.544 S/m
same,viscosity,"308.15 K, x1 = 0.9125",18.18 mPa·s
same,electrical conductivity,"308.15 K, x1 = 0.9447",0.506 S/m
same,viscosity,"308.15 K, x1 = 0.9447",18.66 mPa·s
same,electrical conductivity,"308.15 K, x1 = 1",0.435 S/m
same,viscosity,"308.15 K, x1 = 1",19.35 mPa·s
same,electrical conductivity,"313.15 K, x1 = 0.8294",0.804 S/m
same,viscosity,"313.15 K, x1 = 0.8294",13.77 mPa·s
same,electrical conductivity,"313.15 K, x1 = 0.9125",0.676 S/m
same,viscosity,"313.15 K, x1 = 0.9125",14.84 mPa·s
same,electrical conductivity,"313.15 K, x1 = 0.9447",0.638 S/m
same,viscosity,"313.15 K, x1 = 0.9447",15.22 mPa·s
same,electrical conductivity,"318.15 K, x1 = 0.8294",0.985 S/m
same,viscosity,"318.15 K, x1 = 0.8294",11.31 mPa·s
same,electrical conductivity,"318.15 K, x1 = 0.852",0.941 S/m
same,viscosity,"318.15 K, x1 = 0.852",11.54 mPa·s
same,electrical conductivity,"318.15 K, x1 = 0.8822",0.887 S/m
same,viscosity,"318.15 K, x1 = 0.8822",11.83 mPa·s
same,electrical conductivity,"318.15 K, x1 = 0.9125",0.843 S/m
same,viscosity,"318.15 K, x1 = 0.9125",12.15 mPa·s
same,electrical conductivity,"318.15 K, x1 = 0.9447",0.797 S/m
same,viscosity,"318.15 K, x1 = 0.9447",12.45 mPa·s
same,electrical conductivity,"318.15 K, x1 = 1",0.719 S/m
same,viscosity,"318.15 K, x1 = 1",12.9 mPa·s
CC(O)C(=O)[O-].CCOCCn1cc[n+](C)c1 + O,electrical conductivity,"288.15 K, x1 = 0.8091",0.243 S/m
same,viscosity,"288.15 K, x1 = 0.8091",86.2 mPa·s
same,electrical conductivity,"288.15 K, x1 = 0.8366",0.214 S/m
same,viscosity,"288.15 K, x1 = 0.8366",93.5 mPa·s
same,electrical conductivity,"288.15 K, x1 = 0.87",0.185 S/m
same,viscosity,"288.15 K, x1 = 0.87",103 mPa·s
same,electrical conductivity,"288.15 K, x1 = 0.9014",0.157 S/m
same,viscosity,"288.15 K, x1 = 0.9014",110.4 mPa·s
same,electrical conductivity,"288.15 K, x1 = 0.9386",0.127 S/m
same,viscosity,"288.15 K, x1 = 0.9386",119.7 mPa·s
same,electrical conductivity,"288.15 K, x1 = 1",0.082 S/m
same,viscosity,"288.15 K, x1 = 1",132.7 mPa·s
same,electrical conductivity,"293.15 K, x1 = 0.87",0.229 S/m
same,viscosity,"293.15 K, x1 = 0.87",80.3 mPa·s
same,electrical conductivity,"293.15 K, x1 = 0.9386",0.172 S/m
same,viscosity,"293.15 K, x1 = 0.9386",90.8 mPa·s
same,electrical conductivity,"293.15 K, x1 = 1",0.123 S/m
same,viscosity,"293.15 K, x1 = 1",99.1 mPa·s
same,electrical conductivity,"298.15 K, x1 = 0.8091",0.336 S/m
same,viscosity,"298.15 K, x1 = 0.8091",52.9 mPa·s
same,electrical conductivity,"298.15 K, x1 = 0.8366",0.306 S/m
same,viscosity,"298.15 K, x1 = 0.8366",56.21 mPa·s
same,electrical conductivity,"298.15 K, x1 = 0.9014",0.248 S/m
same,viscosity,"298.15 K, x1 = 0.9014",63.93 mPa·s
same,electrical conductivity,"298.15 K, x1 = 0.9386",0.218 S/m
same,viscosity,"298.15 K, x1 = 0.9386",68.22 mPa·s
same,electrical conductivity,"298.15 K, x1 = 1",0.171 S/m
same,viscosity,"298.15 K, x1 = 1",74.1 mPa·s
same,electrical conductivity,"303.15 K, x1 = 0.8091",0.389 S/m
same,viscosity,"303.15 K, x1 = 0.8091",41.86 mPa·s
same,electrical conductivity,"303.15 K, x1 = 0.8366",0.358 S/m
same,viscosity,"303.15 K, x1 = 0.8366",44.21 mPa·s
same,electrical conductivity,"303.15 K, x1 = 0.87",0.33 S/m
same,viscosity,"303.15 K, x1 = 0.87",47.25 mPa·s
same,electrical conductivity,"303.15 K, x1 = 0.9014",0.302 S/m
same,viscosity,"303.15 K, x1 = 0.9014",49.83 mPa·s
same,electrical conductivity,"303.15 K, x1 = 1",0.228 S/m
same,viscosity,"303.15 K, x1 = 1",56.72 mPa·s
same,electrical conductivity,"308.15 K, x1 = 0.9014",0.397 S/m
same,viscosity,"308.15 K, x1 = 0.9014",37.68 mPa·s
same,electrical conductivity,"308.15 K, x1 = 0.9386",0.368 S/m
same,viscosity,"308.15 K, x1 = 0.9386",40.01 mPa·s
same,electrical conductivity,"308.15 K, x1 = 1",0.314 S/m
same,viscosity,"308.15 K, x1 = 1",43.14 mPa·s
same,electrical conductivity,"313.15 K, x1 = 0.8091",0.572 S/m
same,viscosity,"313.15 K, x1 = 0.8091",25.13 mPa·s
same,electrical conductivity,"313.15 K, x1 = 0.8366",0.544 S/m
same,viscosity,"313.15 K, x1 = 0.8366",26.5 mPa·s
same,electrical conductivity,"313.15 K, x1 = 0.87",0.516 S/m
same,viscosity,"313.15 K, x1 = 0.87",28.21 mPa·s
same,electrical conductivity,"313.15 K, x1 = 0.9014",0.488 S/m
same,viscosity,"313.15 K, x1 = 0.9014",29.62 mPa·s
same,electrical conductivity,"313.15 K, x1 = 0.9386",0.463 S/m
same,viscosity,"313.15 K, x1 = 0.9386",31.44 mPa·s
same,electrical conductivity,"313.15 K, x1 = 1",0.418 S/m
same,viscosity,"313.15 K, x1 = 1",33.82 mPa·s
same,electrical conductivity,"318.15 K, x1 = 0.8091",0.713 S/m
same,viscosity,"318.15 K, x1 = 0.8091",18.65 mPa·s
same,electrical conductivity,"318.15 K, x1 = 0.8366",0.681 S/m
same,viscosity,"318.15 K, x1 = 0.8366",19.82 mPa·s
same,electrical conductivity,"318.15 K, x1 = 0.87",0.648 S/m
same,viscosity,"318.15 K, x1 = 0.87",21.2 mPa·s
same,electrical conductivity,"318.15 K, x1 = 0.9386",0.587 S/m
same,viscosity,"318.15 K, x1 = 0.9386",24.02 mPa·s
same,electrical conductivity,"318.15 K, x1 = 1",0.536 S/m
same,viscosity,"318.15 K, x1 = 1",26.08 mPa·s
